Measurements from patent US20240294914A1, “COMPOSITIONS AND METHODS FOR TREATING HEPATITIS B VIRUS INFECTION” (priority 2021, published 2024).

Experiments:
[1] = test system: naturally integrated HBV genome in PLC/PRF/5; experiment: Editing of naturally integrated HBV genome in PLC/PRF/5 cells; assay type: cell-based, Hepatitis B virus; details: BE4 + gRNA
Text: This editing reduced HBsAg secretion (FIG. 34B).

[2] = test system: HBsAg; details: PLC/PRF/5 cells, BE4 + gRNA, 6th day post-transfection
[3] = test system: Hepatitis B virus; experiment: Antiviral efficacy in HBV-infected primary human hepatocytes (HBV-PHH): HBsAg, HBeAg, HBV DNA, 3.5 kb RNA, rebound; assay type: cell-based; details: PHH co-culture, transfection at days 4 and 11; lamivudine 8 days then discontinued
[4] = test system: HBV cccDNA; experiment: cccDNA editing in HBV-infected HepG2-NTCP cells (NGS on enriched cccDNA); assay type: cell-based, Hepatitis B virus; details: for improvement in base editing efficiency by lamivudine pretreatment: HepG2-NTCP, 3-day pretreatment (8-day total), BE4 mRNA + gRNAs 37 and 40
Text: Experiments were completed using guide RNA's listed in Table 1 to identify combinations of guide RNA's effective in treating HBV-infected cells. HepG2-NTCP cells were transfected with mRNA encoding BE4 and a guide RNA(s) selected from gRNA12, gRNA37, gRNA19, gRNA190, and gRNA40. HepG2-NTCP cells are described in Sun, et al. “NTCP-Reconstituted In Vitro HBV Infection System,” Methods Mol. Biol. 1540:1-14 (2017), DOI: 10.1007/978-1-4939-6700-1_1, the disclosure of which is incorporated herein by reference in its entirety for all purposes. Cells were infected at day 0 with HBV and then transfected with the mRNA and gRNA(s) at day 4, see FIG. 6. Measurements of HBsAg, HBeAg, total HBV DNA, and 3.5 kb viral DNA were taken at day 14, see FIG. 6. The guide RNA, gRNA37, targeted HBsAg and gRNA40 targeted the HBV core protein, see FIG. 7. The use of gRNA37 was associated with a reduction in HBsAg levels and the use of gRNA40 was associated with a reduction in HBeAg levels, see FIG. 8. Also, each of gRNA37 and gRNA40 was associated with a lowering of total HBV DNA and 3.5 kb RNA levels.
(§1) Having identified gRNA37 and gRNA40 as effective gRNAs, the antiviral efficacy of a base editor system containing BE4, gRNA37 and gRNA40 (i.e., multiplexing gRNAs) was evaluated, FIGS. 8-10. It was determined that the base editor system multiplexed with the two gRNAs was associated with a reduction of HBV viral parameters in HepG2-NTCP cells, see FIG. 9. […] For the evaluation of editing of cccDNA, the cccDNA was enriched via Hirt extraction and ExoI/ExoIII nuclease treatment to remove rcDNA (relaxed circular DNA). Throughout the Examples provided herein, editing of cccDNA was evaluated using next generation sequencing completed using cccDNA enriched in this way.
HepG2-NTCP cells were infected with HBV at day 0, at day 4 an 8-day treatment with lamivudine commenced (which included a 3-day pretreatment period within the 8-day total), at day 7 cells were transfected with mRNA encoding BE4 and gRNAs 37 and 40, and measurements were taken at day 15. […]

[5] = test system: HBV cccDNA; experiment: Base editing of HBV cccDNA in primary human hepatocytes (HBV-PHH); assay type: cell-based, Hepatitis B virus; details: PHH, BE4 + gRNA37 + gRNA40
Text: Base editor systems comparing guide RNAs evaluated in Example 1 were subsequently tested for anti-viral and editing efficacy using the Hepatitis B virus-primary human hepatocyte (HBV-PHH) system. Cells were transfected with the guide RNAs and mRNAs encoding the base editor as described in Example 1. […] Guide RNAs ABE-133, MSPbeam94, and ABE-85 were associated with a 70-80% reduction of HBV DNA as compared to controls. The guide RNAs PolyA-NGC1 and PolyA-NGC2 were associated with high editing followed by 90% efficacy in reduction of HbeAg.
as §1
The design of the experiments is described schematically in FIG. 14. Primary human hepatocyte (PHH) cells were infected with HBV at day 0. At days 4 and 11, the cells were transfected with mRNA encoding BE4 and with gRNA37 and gRNA40. Measurements of HBV DNA were taken over time, and measurements of HBsAg, HBeAG, HBV total DNA, 3.5 kb RNA, and cccDNA editing were taken at day 25. The experiments were carried out using a PHH co-culture system available from PhoenixBio. The PHH co-culture system maintained hepatocyte differentiation and metabolic activity for over 30 days. The HBV infection in the cells was persistent and a cccDNA level was maintained.
The design of the experiments is described schematically in FIG. 18. Primary human hepatocyte (PHH) cells were infected with HBV at day 0, at day 4 an 8-day. Treatment with lamivudine commenced (which included a 3-day pretreatment period within the 8-day total), and cells were transfected with mRNA encoding BE4 and the gRNAs gRNA37 and gRNA40 at days 7 and 14. HBV DNA levels were measured over time, and additional HBV markers were measured at day 21.
Primary hepatocytes (PHH) co-cultures infected with HBV were used to test antiviral efficacy of base editing systems. Primary hepatocyte co-culture (PHH) infected with HBV virus is a clinically relevant system for assessing anti-viral activity of base editing systems. The base editing reagents (mRNA encoding a base editor(s) and synthetic gRNA) were transfected via lipofection twice over the course of two weeks. The first transfection was performed about 3, 4, or 7 days after infection (days post infection (dpi)). Not being bound by theory, this 3-to-7-day period ensured that the cccDNA was completely formed at the time of the transfection. The second transfection was at about 7, 10, 11, or 14 days after infection. Extracellular parameters (e.g., HBsAg, HBeAg, and HBV DNA) were monitored over the course of the experiment (including the end of the experiment) and intracellular parameters (HBV DNA, viral RNA, and editing) were measured at the end of the experiment. Cells were lysed at the termination of the experiment (e.g., at 15, 17, 21, or 25 days).
Transfection details: RNA format, 800 ng total RNA per well in a 24 well plate (600 ng base editor-encoding mRNA+200 ng gRNA) transfected via lipofection (lipofectamin messengerMax, thermofisher Scientific) according to the vendor protocol.

Compound	editing of the naturally integrated HBV genome [1]	extracellular HBsAg (secretion) [2]	HBV rebound (extracellular HBV DNA, qPCR in supernatant) [3]	improvement in base editing efficiency by lamivudine pretreatment [4]	improvement in base editing efficiency by lamivudine pretreatment ([4]; listed as Lamivudine)	functional editing by NGS on cccDNA enriched samples in the presence of 3TC ([4]; gRNA B+gRNA H with BE4)	editing in primary hepatocytes with lamivudine pretreatment [5]
MSPbeam37-PLC: guide RNA with spacer sequence SEQ ID NO. 10834, single nucleobase change relative to MSPbeam37 (guide GAAAGCCCAAGAUGAUGGGA; guide RNA scaffold, chemistry not fully specified)	edited	reduced	–	–	–	–	–
Nc1ccn([C@@H]2CS[C@H](CO)O2)c(=O)n1 [lamivudine, 2′,3′-dideoxy-3′-thiacytidine 4-Amino-1-[(2R,5S)-2-(hydroxymethyl)-1,3-oxathiolan-5-yl]-1,2-dihydropyrimidin-2-one]	–	–	rebounded	about 20%	20%	Higher editing efficiency	improved editing
